Tests used:
[1] = plasma exposure in HLA-B27/Huβ2m rats; settings: 10 mg/kg daily oral (comparator)
Text: In each disease model, steady-state pharmacokinetics were characterized.

[2] = tested on: Ankylosing spondylitis in HLA B27 Tg rat; test: HLA-B27/Huβ2m transgenic rat model of ankylosing spondylitis
Text: Etanercept and tofactinib (Balagué et al. Profiling of dihydroorotate dehydrogenase, p38 and JAK inhibitors in the rat adjuvant-induced arthritis model: a translational study. Br J Pharmacol. 2012 June; 166(4):1320-32) were included in this rat study as comparator molecules.

| AUCLST [1] | Compound | Paw Swelling Inhibition (%) ([2]; 10 mg/kg daily oral gavage (comparator)) | Paw Swelling Inhibition (%) ([2]; 10 mg/kg twice weekly subcutaneous injection (comparator)) |
| --- | --- | --- | --- |
| 6540 ng·h/mL | C[C@@H]1CCN(C(=O)CC#N)C[C@@H]1N(C)c1ncnc2[nH]ccc12 [Tofacitinib, tofacitinib, reference compound] | 47% |  |
|  | Etanercept |  | 42% |
